Earlier results, collected in EP2691395B1, “PROCESSES FOR PREPARING TOFACITINIB SALTS” (ratiopharm GmbH, priority 2011, dated 2012).

Conditions: acids listed as possible first acid

Row | Compound | pKa
1 | CC(O)CC(=O)O (stereo not drawn) [3-hydroxybutanoic acid] | about 4.70
2 | O=C(O)CCO [3-hydroxypropanoic acid] | about 4.51
3 | CC(=O)Nc1ccc(C(=O)O)cc1 [4-acetamidobenzoic acid] | about 4.3
4 | O=C(O)CCCO [4-hydroxybutanoic acid] | about 4.72
5 | CC1(C(=O)O)CCC(C(=O)O)C1(C)C (stereo not drawn) [(+)-camphoric acid] | about 4.72
6 | O=C(O)[C@H](O)[C@@H](O)[C@H](O)[C@H](O)CO [D-gluconic acid] | about 3.76
7 | CCCCCCCC(=O)O [caprylic or octanoic acid] | about 4.91
8 | O=C(O)O [carbonic acid] | about 6.46
9 | O=C(O)/C=C\c1ccccc1 [cis-cinnamic acid] | about 3.89
10 | O=C(O)CCCC(=O)O [glutaric acid] | about 4.31
11 | CCCCCC(=O)O [hexanoic or caproic acid] | about 4.85
12 | O=C(O)CNC(=O)c1ccccc1 [hippuric acid] | about 3.55
13 | CCCCCCCCCCCC(=O)O [lauric acid] | about 4.9
14 | O=C(O)c1cccc(O)c1 [m-hydroxybenzoic acid] | about 4.06
15 | CC(CC(=O)O)C(=O)O (stereo not drawn) [methylsuccinic acid] | about 4.13
16 | CCCCCCCC/C=C\CCCCCCCC(=O)O [oleic acid] | about 4
17 | O=C(O)c1cc(=O)[nH]c(=O)[nH]1 [orotic acid] | about 5.85
18 | O=C(O)c1ccc(O)cc1 [p-hydroxybenzoic acid] | about 4.48
19 | CCCCCCCCCCCCCCCC(=O)O [palmitic acid] | about 4.9
20 | CCCCC(=O)O [pentanoic acid] | about 4.84
21 | O=C(O)Cc1ccccc1 [phenylacetic acid] | about 4.28
22 | CCCCCCCCCCCCCCCCCC(=O)O [stearic acid] | about 4.9
23 | C=CCCCCCCCCC(=O)O [undecylenic acid] | about 4.9
24 | O=c1[nH]c(=O)c2[nH]c(=O)[nH]c2[nH]1 [uric acid] | about 3.89
